pIC50: −log10 of the molar value.
Biological target: T1, Human NaV1.7 (Homo sapiens, UniProt Q15858)
T1 construct: expressed in transfected cells; host or cells: Spiking HEK cells (without Kir2.1 transfection)
Assay: Ionworks Barracuda (IWB) automated patch clamp assay
Assay type: cell-based
Details: human NaV1.7 in HEK cells, population patch-clamp, state- and use-dependent voltage protocol; read-out: hNaV1.7 IWB-U IC50
Description: Ionworks Barracuda (IWB) Automated Patch Clamp Assay (Same Protocol for Both Human and Mouse)
Human NaV1.7 currents were recorded in population patch-clamp mode with the IWB automated electrophysiology system (Molecular Devices, LLC, Sunnyvale, Calif.). Spiking HEK cells (without Kir2.1 transfection) were cultured and prepared for recordings as previously described for IonWorks Quattro testing^1. The external solution consisted of the following (in mM): NaCl 140, KCl 5, CaCl2 2, MgCl2 1, HEPES 10, and glucose 11, pH 7.4, with N-methyl-D-glucamine at 320 mOsmol. […] From a holding potential of −110 mV, currents were elicited by a train of 26 depolarizations of 150 ms duration to −20 mV at a frequency of 5 Hz. Cells were then clamped to −20 mV for a period of 4 minutes in the presence of a single concentration of test compound. Following this compound incubation period, cells were clamped to −110 mV for three seconds to recover unbound channels and put through the same 26 pulse voltage protocol as above. Peak inward current during the 26th pulse to −20 mV in the presence of compound was divided by the peak inward current evoked by the 26th pulse to −20 mV in the absence of compound to determine percent inhibition. Concentration-response curves of percent inhibition as a function of concentration were generated to calculate IC50 values as described in Kornecook, T. J.; Yin, R.; Altmann, S.; et al. Pharmacologic Characterization of AMG8379, a Potent and Selective Small Molecule Sulfonamide Antagonist of the Voltage-Gated Sodium Channel NaV1. 7.
The potency of the compounds of the present invention were evaluated on human NaV1.7 channels using the above described IonWorks Barracuda automated electrophysiology platform that evaluates the ability of compounds to block sodium conductance through NaV1.7 channels. A voltage-protocol that prosecutes both state-dependent as well as use-dependent inhibition was used as these modes of action are thought to be more relevant for the native state of NaV1.7 channels in pain sensing neurons in vivo.

T1 sequence (Q15858 whole entry): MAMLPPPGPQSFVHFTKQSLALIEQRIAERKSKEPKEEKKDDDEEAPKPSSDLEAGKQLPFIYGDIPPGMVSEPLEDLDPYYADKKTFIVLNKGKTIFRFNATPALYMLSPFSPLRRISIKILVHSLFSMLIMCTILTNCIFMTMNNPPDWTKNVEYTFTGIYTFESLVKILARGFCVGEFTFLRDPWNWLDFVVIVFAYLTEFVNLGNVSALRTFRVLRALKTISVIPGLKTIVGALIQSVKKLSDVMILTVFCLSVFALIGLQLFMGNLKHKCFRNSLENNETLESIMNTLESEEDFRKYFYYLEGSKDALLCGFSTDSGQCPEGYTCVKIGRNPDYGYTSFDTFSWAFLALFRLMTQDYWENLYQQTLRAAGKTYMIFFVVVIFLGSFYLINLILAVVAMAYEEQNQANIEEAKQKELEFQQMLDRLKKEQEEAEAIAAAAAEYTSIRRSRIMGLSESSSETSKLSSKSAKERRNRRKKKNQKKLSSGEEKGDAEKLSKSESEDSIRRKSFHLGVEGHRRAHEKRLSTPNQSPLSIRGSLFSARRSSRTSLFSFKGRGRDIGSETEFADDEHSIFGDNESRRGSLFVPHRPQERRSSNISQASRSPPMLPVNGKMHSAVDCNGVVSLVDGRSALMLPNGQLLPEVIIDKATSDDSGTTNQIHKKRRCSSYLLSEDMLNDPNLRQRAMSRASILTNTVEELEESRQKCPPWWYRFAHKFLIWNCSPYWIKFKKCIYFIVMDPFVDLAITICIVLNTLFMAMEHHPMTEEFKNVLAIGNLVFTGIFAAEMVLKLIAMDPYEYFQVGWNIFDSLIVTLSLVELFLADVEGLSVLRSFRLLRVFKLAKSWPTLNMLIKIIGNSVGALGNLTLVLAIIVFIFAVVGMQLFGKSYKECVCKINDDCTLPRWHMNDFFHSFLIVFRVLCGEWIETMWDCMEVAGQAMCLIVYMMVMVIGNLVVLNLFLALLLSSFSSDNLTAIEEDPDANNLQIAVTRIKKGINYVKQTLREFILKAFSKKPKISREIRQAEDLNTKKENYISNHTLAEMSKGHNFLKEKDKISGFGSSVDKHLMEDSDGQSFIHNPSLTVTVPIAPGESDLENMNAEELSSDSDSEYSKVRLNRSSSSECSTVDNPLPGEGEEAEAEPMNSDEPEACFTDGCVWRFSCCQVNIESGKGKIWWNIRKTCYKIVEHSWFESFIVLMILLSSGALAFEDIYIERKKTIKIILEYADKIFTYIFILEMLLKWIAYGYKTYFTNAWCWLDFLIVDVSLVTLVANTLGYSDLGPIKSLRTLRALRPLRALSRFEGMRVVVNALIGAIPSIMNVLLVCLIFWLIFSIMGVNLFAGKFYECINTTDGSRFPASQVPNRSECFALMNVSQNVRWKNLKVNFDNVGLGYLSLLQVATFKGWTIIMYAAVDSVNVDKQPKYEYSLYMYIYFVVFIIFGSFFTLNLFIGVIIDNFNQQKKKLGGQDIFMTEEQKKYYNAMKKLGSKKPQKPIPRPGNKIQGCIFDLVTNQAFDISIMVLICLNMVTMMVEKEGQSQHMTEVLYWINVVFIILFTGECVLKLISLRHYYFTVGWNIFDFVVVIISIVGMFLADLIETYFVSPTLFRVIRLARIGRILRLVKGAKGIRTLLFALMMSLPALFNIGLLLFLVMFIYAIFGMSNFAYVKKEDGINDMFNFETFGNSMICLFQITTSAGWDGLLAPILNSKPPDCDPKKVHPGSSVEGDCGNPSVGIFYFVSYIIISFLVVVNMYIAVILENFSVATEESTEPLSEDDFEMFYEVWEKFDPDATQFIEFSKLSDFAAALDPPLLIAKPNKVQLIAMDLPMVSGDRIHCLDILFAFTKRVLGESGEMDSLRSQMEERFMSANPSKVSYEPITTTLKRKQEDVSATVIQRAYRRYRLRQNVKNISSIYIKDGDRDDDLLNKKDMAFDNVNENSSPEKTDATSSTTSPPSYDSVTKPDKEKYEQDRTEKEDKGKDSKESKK

Row | Structure (SMILES) | pIC50
1 | COc1cc([C@H]2C[C@@H]2C(F)(F)F)c(F)cc1-n1c(=O)ccc2cc(S(=O)(=O)Nc3ccon3)ccc21 (atropisomer, axis not shown; (P)) [Example 4, (P)-1-(5-fluoro-2-methoxy-4-((1S,2S)-2-(trifluoromethyl)cyclopropyl)phenyl)-N-(isoxazol-3-yl)-2-oxo-1,2-dihydroquinoline-6-sulfonamide] | 7.96
2 | COc1cc([C@@H]2C[C@H]2C(F)(F)F)c(F)cc1-n1c(=O)ccc2cc(S(=O)(=O)Nc3ccon3)ccc21 (atropisomer, axis not shown; (P)) [Example 5, (P)-1-(5-fluoro-2-methoxy-4-((1R,2R)-2-(trifluoromethyl)cyclopropyl)phenyl)-N-(isoxazol-3-yl)-2-oxo-1,2-dihydroquinoline-6-sulfonamide] | 8.05
3 | COc1cc([C@@H]2C[C@H]2C)c(F)cc1-n1c(=O)ccc2cc(S(=O)(=O)Nc3ccon3)ccc21 (atropisomer, axis not shown; (P)) [Example 6, (P)-1-(5-fluoro-2-methoxy-4-((1R,2R)-2-methylcyclopropyl)phenyl)-N-(isoxazol-3-yl)-2-oxo-1,2-dihydroquinoline-6-sulfonamide] | 7.70
4 | COc1cc([C@H]2C[C@@H]2C)c(F)cc1-n1c(=O)ccc2cc(S(=O)(=O)Nc3ccon3)ccc21 (atropisomer, axis not shown; (P)) [Example 7, (P)-1-(5-fluoro-2-methoxy-4-((1S,2S)-2-methylcyclopropyl)phenyl)-N-(isoxazol-3-yl)-2-oxo-1,2-dihydroquinoline-6-sulfonamide] | 7.80
5 | COc1cc([C@@H]2C[C@H]2c2ccccc2)c(F)cc1-n1c(=O)ccc2cc(S(=O)(=O)Nc3ccon3)ccc21 (atropisomer, axis not shown; (P)) [Example 8, (P)-1-(5-fluoro-2-methoxy-4-((1R,2R)-2-phenylcyclopropyl)phenyl)-N-(isoxazol-3-yl)-2-oxo-1,2-dihydroquinoline-6-sulfonamide] | 8.10
6 | COc1cc([C@H]2C[C@@H]2c2ccccc2)c(F)cc1-n1c(=O)ccc2cc(S(=O)(=O)Nc3ccon3)ccc21 (atropisomer, axis not shown; (P)) [Example 9, (P)-1-(5-fluoro-2-methoxy-4-((1S,2S)-2-phenylcyclopropyl)phenyl)-N-(isoxazol-3-yl)-2-oxo-1,2-dihydroquinoline-6-sulfonamide] | 8.40
7 | COc1cc([C@H]2CC2(F)F)c(F)cc1-n1c(=O)ccc2cc(S(=O)(=O)Nc3ccon3)ccc21 (atropisomer, axis not shown; (P)) [Example 10, (P)-(R)-1-(4-(2,2-difluorocyclopropyl)-5-fluoro-2-methoxyphenyl)-N-(isoxazol-3-yl)-2-oxo-1,2-dihydroquinoline-6-sulfonamide] | 7.18
8 | COc1cc([C@@H]2CC2(F)F)c(F)cc1-n1c(=O)ccc2cc(S(=O)(=O)Nc3ccon3)ccc21 (atropisomer, axis not shown; (P)) [Example 11, (P)-(S)-1-(4-(2,2-difluorocyclopropyl)-5-fluoro-2-methoxyphenyl)-N-(isoxazol-3-yl)-2-oxo-1,2-dihydroquinoline-6-sulfonamide] | 7.23
9 | COc1cc([C@H]2C[C@@H]2C(F)(F)F)c(Cl)cc1-n1c(=O)ccc2cc(S(=O)(=O)Nc3ncccn3)ccc21 (atropisomer, axis not shown; (P)) [Example 12, (P)-1-(5-chloro-2-methoxy-4-((1S,2S)-2-(trifluoromethyl)cyclopropyl)phenyl)-2-oxo-N-(pyrimidin-2-yl)-1,2-dihydroquinoline-6-sulfonamide] | 7.77
10 | COc1cc([C@@H]2C[C@H]2C(F)(F)F)c(Cl)cc1-n1c(=O)ccc2cc(S(=O)(=O)Nc3ncccn3)ccc21 (atropisomer, axis not shown; (P)) [Example 13, (P)-1-(5-chloro-2-methoxy-4-((1R,2R)-2-(trifluoromethyl)cyclopropyl)phenyl)-2-oxo-N-(pyrimidin-2-yl)-1,2-dihydroquinoline-6-sulfonamide] | 7.92
11 | COc1cc([C@@H]2C[C@H]2C(F)(F)F)c(F)cc1-n1c(=O)ccc2cc(S(=O)(=O)Nc3cccnn3)ccc21 (atropisomer, axis not shown; (P)) [Example 16, (P)-1-(5-fluoro-2-methoxy-4-((1R,2R)-2-(trifluoromethyl)cyclopropyl)phenyl)-2-oxo-N-(pyridazin-3-yl)-1,2-dihydroquinoline-6-sulfonamide] | 7.72
12 | COc1cc([C@H]2C[C@@H]2C(F)(F)F)c(F)cc1-n1c(=O)ccc2cc(S(=O)(=O)Nc3cccnn3)ccc21 (atropisomer, axis not shown; (P)) [Example 17, (P)-1-(5-fluoro-2-methoxy-4-((1S,2S)-2-(trifluoromethyl)cyclopropyl)phenyl)-2-oxo-N-(pyridazin-3-yl)-1,2-dihydroquinoline-6-sulfonamide] | 7.80
13 | COc1cc([C@@H]2C[C@H]2C(F)(F)F)c(Cl)cc1-n1c(=O)ccc2cc(S(=O)(=O)Nc3ccon3)ccc21 (atropisomer, axis not shown; (P)) [Example 18, (P)-1-(5-chloro-2-methoxy-4-((1R,2R)-2-(trifluoromethyl)cyclopropyl)phenyl)-N-(isoxazol-3-yl)-2-oxo-1,2-dihydroquinoline-6-sulfonamide] | 8.15

The remaining lines, values ahead:

Row | pIC50 | Structure (SMILES)
14 | 8.22 | COc1cc([C@H]2C[C@@H]2C(F)(F)F)c(Cl)cc1-n1c(=O)ccc2cc(S(=O)(=O)Nc3ccon3)ccc21 (atropisomer, axis not shown; (P)) [Example 19, (P)-1-(5-chloro-2-methoxy-4-((1S,2S)-2-(trifluoromethyl)cyclopropyl)phenyl)-N-(isoxazol-3-yl)-2-oxo-1,2-dihydroquinoline-6-sulfonamide]
15 | 7.62 | COc1cc([C@@H]2C[C@H]2C(F)(F)F)c(F)cc1-n1c(=O)ccc2cc(S(=O)(=O)Nc3ncccn3)ccc21 (atropisomer, axis not shown; (P)) [Example 20, (P)-1-(5-fluoro-2-methoxy-4-((1R,2R)-2-(trifluoromethyl)cyclopropyl)phenyl)-2-oxo-N-(pyrimidin-2-yl)-1,2-dihydroquinoline-6-sulfonamide]
16 | 7.46 | COc1cc([C@H]2C[C@@H]2C(F)(F)F)c(F)cc1-n1c(=O)ccc2cc(S(=O)(=O)Nc3ncccn3)ccc21 (atropisomer, axis not shown; (P)) [Example 21, (P)-1-(5-fluoro-2-methoxy-4-((1S,2S)-2-(trifluoromethyl)cyclopropyl)phenyl)-2-oxo-N-(pyrimidin-2-yl)-1,2-dihydroquinoline-6-sulfonamide]
17 | 7.80 | COc1cc(C2(C(F)(F)F)CC2)c(F)cc1-n1c(=O)ccc2cc(S(=O)(=O)Nc3ncccn3)ccc21 (atropisomer, axis not shown; (P)) [Example 23, (P)-1-(5-fluoro-2-methoxy-4-(1-(trifluoromethyl)cyclopropyl)phenyl)-2-oxo-N-(pyrimidin-2-yl)-1,2-dihydroquinoline-6-sulfonamide]
18 | 8.22 | COc1cc(C2(C(F)(F)F)CC2)c(Cl)cc1-n1c(=O)ccc2cc(S(=O)(=O)Nc3ccon3)ccc21 (atropisomer, axis not shown; (P)) [Example 24, (P)-1-(5-chloro-2-methoxy-4-(1-(trifluoromethyl)cyclopropyl)phenyl)-N-(isoxazol-3-yl)-2-oxo-1,2-dihydroquinoline-6-sulfonamide]
19 | 7.66 | COc1cc(C2(C(F)(F)F)CC2)c(Cl)cc1-n1c(=O)ccc2cc(S(=O)(=O)Nc3ncccn3)ccc21 (atropisomer, axis not shown; (P)) [Example 25, (P)-1-(5-chloro-2-methoxy-4-(1-(trifluoromethyl)cyclopropyl)phenyl)-2-oxo-N-(pyrimidin-2-yl)-1,2-dihydroquinoline-6-sulfonamide]
20 | 7.38 | COc1cc([C@@H]2C[C@H]2C(F)(F)F)c(C)cc1-n1c(=O)ccc2cc(S(=O)(=O)Nc3ncccn3)ccc21 (atropisomer, axis not shown; (P)) [Example 28, (P)-1-(2-methoxy-5-methyl-4-((1R,2R)-2-(trifluoromethyl)cyclopropyl)phenyl)-2-oxo-N-(pyrimidin-2-yl)-1,2-dihydroquinoline-6-sulfonamide]
21 | 7.49 | COc1cc([C@H]2C[C@@H]2C(F)(F)F)c(C)cc1-n1c(=O)ccc2cc(S(=O)(=O)Nc3ncccn3)ccc21 (atropisomer, axis not shown; (P)) [Example 29, (P)-1-(2-methoxy-5-methyl-4-((1S,2S)-2-(trifluoromethyl)cyclopropyl)phenyl)-2-oxo-N-(pyrimidin-2-yl)-1,2-dihydroquinoline-6-sulfonamide]

From patent publication US20230234948A1, “CYCLOPROPYL DIHYDROQUINOLINE SULFONAMIDE COMPOUNDS” (AMGEN INC., priority 2020, published 2023)
